Measured values: patent US12544374B2, “AZA-quinoline compounds and uses thereof” (Novartis AG, priority 2019, dated 2026)
Like-named read-outs stand apart in the source and are kept apart here.

Tests used:
[1] = test system: B cell lymphoma cell KARPAS422; experiment: Analysis of cell proliferation, KARPAS422; assay type: cell-based, human; details: KARPAS422 after 14 days of treatment, read-out: antiproliferative activities IC50
Experimental: B cell lymphoma cell KARPAS422 was cultured using standard cell culture conditions in RPMI-1640 (Invitrogen, cat #11875) supplemented with 15% FBS (Invitrogen, cat #10099-141) in humidified incubator at 37° C., 5% CO2. To assess the effect of PRC2 inhibition on cell proliferation, exponentially growing cells were seeded at a density of 1×10^5 cells/mL in 12-well plate (Corning, cat #CLS3513). After cell seeding, a compound of the invention was added to the cell media (in concentrations ranging from 0 to 100 μM, 3× dilution series). Viable cell numbers were determined every 3-4 days for up to 14 days using Vi-CELL (Beckman Coulter). On days of cell counting, fresh growth media and compound were replenished and cells split back to a density of 1×10^5 cells/mL. Total cell number is expressed as split-adjusted viable cells per mL. The dose response curves and IC50 values were generated using Prism.

EZH2 = EZH2 (Homo sapiens (Human), UniProt Q15910); experiment: ELISA (H3K27 methylation) assay in G401 cell; assay type: cell-based; details: (b) ELISA Qualified assay, 48 h
Experimental: Representative compounds of the invention were serially and separately diluted 3-fold in DO to obtain a total of eight or twelve concentrations. Then the compounds were added to G401 cell cultured in 384-well plate at 1:500 dilution to obtain the highest concentration of 20 μM. The cells were further cultured for 48 h before ELISA procedure.
ELISA protocol: Cell lysates were transferred to the wells of a 384-well plate and the final volume was adjusted to 50 μL per well with PBS. The plate was sealed, centrifuged at 2,000 rpm for 2 min and incubated at 4° C. for about 16 h. The plate was washed with TBST buffer (1×TBS (10×TBS: 24.2 g Tris (Sigma, T6066), 80 g NaCl (Sigma, S3014) to 1 L of water and adjust pH to 7.6 with HCl) with 0.1% Tween-20). Blocking buffer (TBST, 5% BSA; 50 μL per well) was added and the plate was incubated for 1 h at rt. The blocking buffer was removed and primary antibody was added (30 μL per well). […] The primary antibody was incubated in the plate at rt for 1 h. The wells were washed with TBST and incubated with secondary antibody for 1 h at rt.
After 1 h of incubation at rt, the wells were washed with TBST. […] The signal was read using a PerkinElmer Envision Reader. The H3K27 methylation readouts were normalized using H3 signal and then percentage inhibition was calculated against the samples treated with DO. The data were fit to a dose response curve using the program Helios to get the IC50 values of the test compound.

[2] = biological target: wild type PRC2 (wtPRC2) complex (Homo sapiens (Human), UniProt Q15910); experiment: EZH2 LC-MS assay (LC-Qualified); assay type: biochemical; details: (a) LC-Qualified assay
Experimental: Representative compounds of the invention were serially and separately diluted 3-fold in DMSO to obtain twelve concentrations. […] Solutions (6 μL) of 80 nM wild type PRC2 (wtPRC2) complex and 60 μM SAM in reaction buffer (20 mM Tris, pH 8.0, 0.1% BSA, 0.01% Triton, 0.5 mM DTT) were added to the wells that were then incubated with the test compound for 20 min. A 6 μL solution of 3 μM of the substrate peptide H3K27me1 (histone H3[21-44]-K27me1-biotin) and 6 μM regulatory peptide H3K27me3 (histone H3[21-44]-K27me3) in reaction buffer was added to initiate each reaction. […] The data were fit to a dose response equation using the program Helios to get the IC50 values of the test compound.

[3] = Homo sapiens, KARPAS-422, 336 h

Chain of EZH2 (Q15910 whole entry): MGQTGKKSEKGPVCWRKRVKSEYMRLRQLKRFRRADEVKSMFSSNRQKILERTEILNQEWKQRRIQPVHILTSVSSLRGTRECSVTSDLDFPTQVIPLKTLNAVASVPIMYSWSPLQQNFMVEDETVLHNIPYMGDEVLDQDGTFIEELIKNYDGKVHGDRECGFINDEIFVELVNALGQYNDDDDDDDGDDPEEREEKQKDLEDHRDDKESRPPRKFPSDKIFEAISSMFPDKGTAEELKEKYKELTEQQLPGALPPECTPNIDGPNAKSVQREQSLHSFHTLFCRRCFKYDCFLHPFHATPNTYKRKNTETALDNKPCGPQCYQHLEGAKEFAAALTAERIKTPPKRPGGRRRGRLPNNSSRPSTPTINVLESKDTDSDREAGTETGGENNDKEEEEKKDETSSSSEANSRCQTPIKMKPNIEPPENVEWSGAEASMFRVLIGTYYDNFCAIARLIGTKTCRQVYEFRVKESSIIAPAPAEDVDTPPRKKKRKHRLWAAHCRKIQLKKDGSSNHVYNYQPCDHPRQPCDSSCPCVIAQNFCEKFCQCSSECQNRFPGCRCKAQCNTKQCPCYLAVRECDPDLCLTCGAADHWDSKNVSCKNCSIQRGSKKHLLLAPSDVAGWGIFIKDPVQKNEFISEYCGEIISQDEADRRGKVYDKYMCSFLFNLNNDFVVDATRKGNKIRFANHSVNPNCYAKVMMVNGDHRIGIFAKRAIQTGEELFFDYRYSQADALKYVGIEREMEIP
Chain of EZH2 (Q15022 whole entry partner): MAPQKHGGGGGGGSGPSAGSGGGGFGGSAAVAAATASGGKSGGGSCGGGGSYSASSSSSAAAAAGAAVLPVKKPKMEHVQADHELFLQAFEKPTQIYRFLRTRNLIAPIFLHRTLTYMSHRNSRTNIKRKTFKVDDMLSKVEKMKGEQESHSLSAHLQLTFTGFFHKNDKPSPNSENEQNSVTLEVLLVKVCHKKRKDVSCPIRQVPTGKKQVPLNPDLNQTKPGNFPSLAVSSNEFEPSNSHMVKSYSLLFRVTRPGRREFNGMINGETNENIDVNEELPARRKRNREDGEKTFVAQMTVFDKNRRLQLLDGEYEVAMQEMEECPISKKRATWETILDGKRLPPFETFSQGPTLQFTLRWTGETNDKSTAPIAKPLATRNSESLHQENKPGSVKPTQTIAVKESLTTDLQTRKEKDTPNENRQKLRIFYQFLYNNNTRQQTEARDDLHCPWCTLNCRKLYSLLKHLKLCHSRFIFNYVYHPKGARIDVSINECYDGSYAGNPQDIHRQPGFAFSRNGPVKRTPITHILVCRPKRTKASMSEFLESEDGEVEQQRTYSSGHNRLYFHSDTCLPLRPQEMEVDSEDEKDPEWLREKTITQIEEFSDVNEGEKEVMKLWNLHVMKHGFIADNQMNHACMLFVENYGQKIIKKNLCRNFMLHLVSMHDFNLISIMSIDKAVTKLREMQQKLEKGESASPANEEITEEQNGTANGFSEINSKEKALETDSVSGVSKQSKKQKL
Chain of EZH2 (O75530 whole entry partner): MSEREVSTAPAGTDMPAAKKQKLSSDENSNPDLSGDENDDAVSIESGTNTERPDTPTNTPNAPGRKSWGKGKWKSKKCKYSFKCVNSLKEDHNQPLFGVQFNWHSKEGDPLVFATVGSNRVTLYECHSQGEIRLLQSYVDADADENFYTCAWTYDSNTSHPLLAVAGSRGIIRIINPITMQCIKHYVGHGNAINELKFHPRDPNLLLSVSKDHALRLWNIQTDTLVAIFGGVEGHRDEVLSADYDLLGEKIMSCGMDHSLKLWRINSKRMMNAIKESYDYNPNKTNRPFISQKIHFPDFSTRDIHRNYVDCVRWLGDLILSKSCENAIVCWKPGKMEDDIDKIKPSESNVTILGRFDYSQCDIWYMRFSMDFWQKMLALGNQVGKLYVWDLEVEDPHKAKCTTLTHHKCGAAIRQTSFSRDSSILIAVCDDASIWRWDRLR
Chain of EZH2 (Q09028 whole entry partner): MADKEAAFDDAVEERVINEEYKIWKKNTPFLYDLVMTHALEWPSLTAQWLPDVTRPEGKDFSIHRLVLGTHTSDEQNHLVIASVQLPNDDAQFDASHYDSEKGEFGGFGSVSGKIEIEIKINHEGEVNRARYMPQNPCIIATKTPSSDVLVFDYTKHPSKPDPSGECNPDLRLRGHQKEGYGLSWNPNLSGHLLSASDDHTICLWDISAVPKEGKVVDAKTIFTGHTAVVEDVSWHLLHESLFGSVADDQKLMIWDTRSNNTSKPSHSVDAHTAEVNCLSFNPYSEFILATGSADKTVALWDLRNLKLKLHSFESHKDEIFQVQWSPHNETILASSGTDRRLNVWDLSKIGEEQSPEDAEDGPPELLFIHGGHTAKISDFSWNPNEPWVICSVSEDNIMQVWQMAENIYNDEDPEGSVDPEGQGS
Chain of wild type PRC2 (wtPRC2) complex (Q15910 whole entry): as the sequence (Q15910 whole entry) above
Chain of wild type PRC2 (wtPRC2) complex (Q15022 whole entry partner): as the sequence (Q15022 whole entry partner) above
Chain of wild type PRC2 (wtPRC2) complex (O75530 whole entry partner): as the sequence (O75530 whole entry partner) above
Chain of wild type PRC2 (wtPRC2) complex (Q09028 whole entry partner): as the sequence (Q09028 whole entry partner) above
Chain of wild type PRC2 (wtPRC2) complex (Q6ZN18 whole entry partner): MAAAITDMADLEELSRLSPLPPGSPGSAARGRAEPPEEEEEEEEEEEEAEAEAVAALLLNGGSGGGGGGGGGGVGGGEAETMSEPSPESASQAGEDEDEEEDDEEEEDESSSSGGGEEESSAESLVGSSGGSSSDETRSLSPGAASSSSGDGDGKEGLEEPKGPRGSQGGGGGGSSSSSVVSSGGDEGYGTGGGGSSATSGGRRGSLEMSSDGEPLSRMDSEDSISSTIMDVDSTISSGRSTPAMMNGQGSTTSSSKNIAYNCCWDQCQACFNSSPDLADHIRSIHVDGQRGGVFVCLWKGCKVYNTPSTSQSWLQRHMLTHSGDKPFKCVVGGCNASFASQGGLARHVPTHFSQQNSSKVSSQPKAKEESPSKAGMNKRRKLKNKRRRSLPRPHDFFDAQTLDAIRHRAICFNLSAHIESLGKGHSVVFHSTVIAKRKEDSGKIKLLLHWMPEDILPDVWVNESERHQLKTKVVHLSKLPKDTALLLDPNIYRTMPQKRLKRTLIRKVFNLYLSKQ

| Structure (SMILES) | IC50 [1, 3] [µM] | IC50 (EZH2) [µM] | IC50 [2] [µM] | IC50 [1] [µM] |
| --- | --- | --- | --- | --- |
| OCC1COC(c2cnc(NC[C@H]3CC[C@H](Nc4ccc5ccnc(Cl)c5n4)CC3)nc2)OC1 (mixture of isomers) [Compound C34, (2-(2-((((1,4-trans)-4-((8-chloro-1,7-naphthyridin-2-yl)amino)cyclohexyl)methyl)amino)pyrimidin-5-yl)-1,3-dioxan-5-yl)methanol] | 0.018 | 0.038 | 0.028 | – |
| C[C@H](C(=O)NC1COC1)c1cnc(NC[C@H]2CC[C@H](Nc3ccc4ccnc(Cl)c4n3)CC2)nc1 (relative stereo) [Compound C53, (S)-2-(2-((((1,4-trans)-4-((8-chloro-1,7-naphthyridin-2-yl)amino)cyclohexyl)methyl)amino)pyrimidin-5-yl)-N-(oxetan-3-yl)propanamide] | – | – | – | 0.0003 |
| COc1nccc2ccc(N[C@H]3CC[C@H](CNc4ncc(N)cn4)CC3)nc12 [Compound C1, N^2-(((1,4-trans)-4-((8-methoxy-1,7-naphthyridin-2-yl)amino)cyclohexyl)methyl)pyrimidine-2,5-diamine] | 0.02 | 0.042 | 0.121 | – |
| COc1nccc2ccc(N[C@H]3CC[C@H](CNc4ncc(NC(C)=O)cn4)CC3)nc12 [Compound C6, N-(2-((((1,4-trans)-4-((8-methoxy-1,7-naphthyridin-2-yl)amino)cyclohexyl)methyl)amino)pyrimidin-5-yl)acetamide] | 0.069 | 0.066 | 0.101 | – |
| COc1nccc2ccc(N[C@H]3CC[C@H](CNc4ncc(C(=O)N5CCNCC5)cn4)CC3)nc12 [Compound C8, (2-((((1,4-trans)-4-((8-methoxy-1,7-naphthyridin-2-yl)amino)cyclohexyl)methyl)amino)pyrimidin-5-yl)(piperazin-1-yl)methanone] | 0.072 | 0.077 | 0.07 | – |
| COC(=O)Nc1cnc(NC[C@H]2CC[C@H](Nc3ccc4ccnc(Cl)c4n3)CC2)nc1 [Compound C15, Methyl (2-((((1,4-trans)-4-((8-chloro-1,7-naphthyridin-2-yl)amino)cyclohexyl)methyl)amino)pyrimidin-5-yl)carbamate] | 0.031 | 0.028 | 0.017 | – |
| Clc1nccc2ccc(N[C@H]3CC[C@H](CNc4ncc(CNC5COC5)cn4)CC3)nc12 [Compound C27, 8-chloro-N-((1,4-trans)-4-(((5-((oxetan-3-ylamino)methyl)pyrimidin-2-yl)amino)methyl)cyclohexyl)-1,7-naphthyridin-2-amine] | 0.008 | 0.019 | 0.027 | – |
| CC1(NCc2cnc(NC[C@H]3CC[C@H](Nc4ccc5ccnc(Cl)c5n4)CC3)nc2)COC1 [Compound C28, 8-chloro-N-((1,4-trans)-4-(((5-(((3-methyloxetan-3-yl)amino)methyl)pyrimidin-2-yl)amino)methyl)cyclohexyl)-1,7-naphthyridin-2-amine] | 0.002 | 0.005 | 0.031 | – |
| O=C(Cc1cnc(NC[C@H]2CC[C@H](Nc3ccc4ccnc(Cl)c4n3)CC2)nc1)NC1COC1 [Compound C36, 2-(2-((((1,4-trans)-4-((8-chloro-1,7-naphthyridin-2-yl)amino)cyclohexyl)methyl)amino)pyrimidin-5-yl)-N-(oxetan-3-yl)acetamide] | 0.003 | 0.011 | 0.009 | – |
| CN(C(=O)Cc1cnc(NC[C@H]2CC[C@H](Nc3ccc4ccnc(Cl)c4n3)CC2)nc1)C1COC1 [Compound C37, 2-(2-((((1,4-trans)-4-((8-chloro-1,7-naphthyridin-2-yl)amino)cyclohexyl)methyl)amino)pyrimidin-5-yl)-N-methyl-N-(oxetan-3-yl)acetamide] | 0.0007 | 0.002 | 0.015 | – |
| O=C(Cc1ccc(NC[C@H]2CC[C@H](Nc3ccc4ccnc(Cl)c4n3)CC2)nc1)NC1COC1 [Compound C42, 2-(6-((((1,4-trans)-4-((8-chloro-1,7-naphthyridin-2-yl)amino)cyclohexyl)methyl)amino)pyridin-3-yl)-N-(oxetan-3-yl)acetamide] | 0.002 | 0.007 | 0.018 | – |
| N#CCCN(C(=O)Cc1cnc(NC[C@H]2CC[C@H](Nc3ccc4ccnc(Cl)c4n3)CC2)nc1)C1COC1 [Compound C49, 2-(2-((((1,4-trans)-4-((8-chloro-1,7-naphthyridin-2-yl)amino)cyclohexyl)methyl)amino)pyrimidin-5-yl)-N-(2-cyanoethyl)-N-(oxetan-3-yl)acetamide] | 0.0005 | 0.002 | 0.008 | – |
| O=C(Cc1cnc(NC[C@H]2CC[C@H](Nc3ccc4ccnc(Cl)c4n3)CC2)nc1)N(CCO)C1COC1 [Compound C51, 2-(2-((((1,4-trans)-4-((8-chloro-1,7-naphthyridin-2-yl)amino)cyclohexyl)methyl)amino)pyrimidin-5-yl)-N-(2-hydroxyethyl)-N-(oxetan-3-yl)acetamide] | 0.008 | 0.018 | 0.038 | – |
| CNc1nccc2ccc(N[C@H]3CC[C@H](CNc4ncc(C(N)=O)cn4)CC3)nc12 [Compound C61, 2-((((1,4-trans)-4-((8-(methylamino)-1,7-naphthyridin-2-yl)amino)cyclohexyl)methyl)amino)pyrimidine-5-carboxamide] | 0.041 | 0.032 | 0.049 | – |
| C[C@@H](C(=O)N1CC(O)C1)c1cnc(NC[C@H]2CC[C@H](Nc3ccc4ccnc(Cl)c4n3)CC2)nc1 [Compound C71, (R)-2-(2-((((1,4-trans)-4-((8-chloro-1,7-naphthyridin-2-yl)amino)cyclohexyl)methyl)amino)pyrimidin-5-yl)-1-(3-hydroxyazetidin-1-yl)propan-1-one] | 0.002 | – | – | – |
| O=C(NC1COC1)C(CO)c1cnc(NC[C@H]2CC[C@H](Nc3ccc4ccnc(Cl)c4n3)CC2)nc1 (stereo partly drawn) [Compound C72, 2-(2-((((1,4-trans)-4-((8-chloro-1,7-naphthyridin-2-yl)amino)cyclohexyl)methyl)amino)pyrimidin-5-yl)-3-hydroxy-N-(oxetan-3-yl)propanamide] | – | 0.056 | 0.049 | – |
| O=C(NC1COC1)[C@H](O)c1cnc(NC[C@H]2CC[C@H](Nc3ccc4ccnc(Cl)c4n3)CC2)nc1 [Compound C76, (R)-2-(2-((((1,4-trans)-4-((8-chloro-1,7-naphthyridin-2-yl)amino)cyclohexyl)methyl)amino)pyrimidin-5-yl)-2-hydroxy-N-(oxetan-3-yl)acetamide] | 0.001 | – | – | – |
| O=C(NC1COC1)C(F)(F)c1cnc(NC[C@H]2CC[C@H](Nc3ccc4ccnc(Cl)c4n3)CC2)nc1 [Compound C77, 2-(2-((((1,4-trans)-4-((8-chloro-1,7-naphthyridin-2-yl)amino)cyclohexyl)methyl)amino)pyrimidin-5-yl)-2,2-difluoro-N-(oxetan-3-yl)acetamide] | 0.002 | 0.025 | 0.012 | – |
